The values that follow are results of earlier work, collected in PubChem BioAssay AID1259409 (Chemical Carcinogenesis Research Information System (CCRIS), 2018).

The data set relates to rodent chemically induced tumor inhibition, incidence and multiplicity. The data set is described as follows: CCRIS tumor inhibitor studies. The following applies: Carcinogen: DIETHYLNITROSAMINE, 55-18-5, Dose [Inhibitor]: 0, Route [Inhibitor]: ORAL, Species: RAT, Strain/Sex: BD6/FEMALE, Promoter: NONE USED. The source says: The CCRIS database contains chemical records with carcinogenicity, mutagenicity, tumor promotion, and tumor inhibition test results. It was developed by the National Cancer Institute (NCI). Data are derived from studies cited in primary journals, current awareness tools, NCI reports, and other sources. Test results have been reviewed by experts in carcinogenesis and mutagenesis.
CCRIS provides historical information from the years 1985 - 2011. It is no longer updated.
This is an archive assay for CCRIS tumor inhibitor studies.

For `O=C1O[C@H]([C@@H](O)CO)C(O)=C1O`, the “tumour outcome (control, treated, inhibition, significance)” value runs as follows: (3 G/L IN DRINKING WATER BEGINNING 1 D PRIOR TO FIRST CARCINOGEN DOSE AND CONTINUING TO 2 D POST LAST CARCINOGEN DOSE, Target Tissue: Type of Lesion: LIVER: TUMOR, Dose [Carcinogen]: 80 MG/KG BW 1/WK FOR 8 WK) 94%, 90%, 4%, not significant; (3 G/L IN DRINKING WATER FOR DURATION OF STUDY BEGINNING 1 D PRIOR TO FIRST CARCINOGEN DOSE (STUDY DURATION: 6 MO), Target Tissue: Type of Lesion: ESOPHAGUS: TUMOR, Dose [Carcinogen]: 80 MG/KG BW 1/WK FOR 6 WK) 14%, 0%, 100%, not significant; (3 G/L IN DRINKING WATER FOR DURATION OF STUDY BEGINNING 1 D PRIOR TO FIRST CARCINOGEN DOSE (STUDY DURATION: 6 MO), Target Tissue: Type of Lesion: ESOPHAGUS: TUMOR, Dose [Carcinogen]: 80 MG/KG BW 1/WK FOR 10 WK) 35%, 19%, 46%, not significant; (3 G/L IN DRINKING WATER FOR DURATION OF STUDY BEGINNING 1 D PRIOR TO FIRST CARCINOGEN DOSE (STUDY DURATION: 6 MO), Target Tissue: Type of Lesion: LIVER: TUMOR, Dose [Carcinogen]: 80 MG/KG BW 1/WK FOR 6 WK) 52%, 25%, 52%, not significant; (3 G/L IN DRINKING WATER FOR DURATION OF STUDY BEGINNING 1 D PRIOR TO FIRST CARCINOGEN DOSE (STUDY DURATION: 6 MO), Target Tissue: Type of Lesion: LIVER: TUMOR, Dose [Carcinogen]: 80 MG/KG BW 1/WK FOR 10 WK) 100%, 96%, 4%, not significant; (3 G/L IN DRINKING WATER FOR DURATION OF STUDY BEGINNING 2 D POST CARCINOGEN TREATMENT (STUDY DURATION: 6 MO), Target Tissue: Type of Lesion: ESOPHAGUS: TUMOR, Dose [Carcinogen]: 80 MG/KG BW 1/WK FOR 10 WK) 35%, 10%, 71%, not significant. In addition, the “tumour outcome (control, treated, inhibition, significance)” value by setting is: (10 G/L IN DRINKING WATER BEGINNING 1 D PRIOR TO FIRST CARCINOGEN DOSE AND CONTINUING TO 2 D POST LAST CARCINOGEN DOSE, Target Tissue: Type of Lesion: ESOPHAGUS: TUMOR, Dose [Carcinogen]: 80 MG/KG BW 1/WK FOR 8 WK) 31%, 32%, -3%, not significant; (10 G/L IN DRINKING WATER BEGINNING 1 D PRIOR TO FIRST CARCINOGEN DOSE AND CONTINUING TO 2 D POST LAST CARCINOGEN DOSE, Target Tissue: Type of Lesion: LIVER: TUMOR, Dose [Carcinogen]: 80 MG/KG BW 1/WK FOR 8 WK) 94%, 95%, -1%, not significant; (10 G/L IN DRINKING WATER FOR DURATION OF STUDY BEGINNING 1 D PRIOR TO FIRST CARCINOGEN DOSE (STUDY DURATION: 6 MO), Target Tissue: Type of Lesion: ESOPHAGUS: TUMOR, Dose [Carcinogen]: 80 MG/KG BW 1/WK FOR 10 WK) 35%, 28%, 20%, not significant; (10 G/L IN DRINKING WATER FOR DURATION OF STUDY BEGINNING 1 D PRIOR TO FIRST CARCINOGEN DOSE (STUDY DURATION: 6 MO), Target Tissue: Type of Lesion: LIVER: TUMOR, Dose [Carcinogen]: 80 MG/KG BW 1/WK FOR 10 WK) 100%, 88%, 12%, not significant; (10 G/L IN DRINKING WATER FOR DURATION OF STUDY BEGINNING 2 D POST CARCINOGEN TREATMENT (STUDY DURATION: 6 MO), Target Tissue: Type of Lesion: ESOPHAGUS: TUMOR, Dose [Carcinogen]: 80 MG/KG BW 1/WK FOR 10 WK) 35%, 33%, 6%, not significant; (10 G/L IN DRINKING WATER FOR DURATION OF STUDY BEGINNING 2 D POST CARCINOGEN TREATMENT (STUDY DURATION: 6 MO), Target Tissue: Type of Lesion: LIVER: TUMOR, Dose [Carcinogen]: 80 MG/KG BW 1/WK FOR 10 WK) 100%, 100%, 0%, not significant. In addition, the “tumour outcome (control, treated, inhibition, significance)” value was 31%, 26%, 16%, not significant (15 G/L IN DRINKING WATER BEGINNING 1 D PRIOR TO FIRST CARCINOGEN DOSE AND CONTINUING TO 2 D POST LAST CARCINOGEN DOSE, Target Tissue: Type of Lesion: ESOPHAGUS: TUMOR, Dose [Carcinogen]: 80 MG/KG BW 1/WK FOR 8 WK) and 94%, 90%, 4%, not significant (15 G/L IN DRINKING WATER BEGINNING 1 D PRIOR TO FIRST CARCINOGEN DOSE AND CONTINUING TO 2 D POST LAST CARCINOGEN DOSE, Target Tissue: Type of Lesion: LIVER: TUMOR, Dose [Carcinogen]: 80 MG/KG BW 1/WK FOR 8 WK).
